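These data come from cells grown in 96-well plates and exposed to compound for 48 hours at five concentrations. TGI denotes the concentration required for complete inhibition of growth.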
Assays:
Assay in all cases: growth of human tumour cells (NCI), 48 h
UACC-62 melanoma = test system: UACC-62 melanoma
NCI-H522 lung = test system: NCI-H522 lung
COLO 205 colon = test system: COLO 205 colon
CAKI-1 renal = test system: CAKI-1 renal
RPMI-8226 leukemia = test system: RPMI-8226 leukemia
MCF7 breast = test system: MCF7 breast
SK-MEL-28 melanoma = test system: SK-MEL-28 melanoma
HCC-2998 colon = test system: HCC-2998 colon
UO-31 renal = test system: UO-31 renal
A549 NSCLC = test system: A549 NSCLC
HCT-116 colon = test system: HCT-116 colon
CCRF-CEM leukemia = test system: CCRF-CEM leukemia
SF-268 CNS = test system: SF-268 CNS
KM12 colon = test system: KM12 colon
MALME-3M melanoma = test system: MALME-3M melanoma
NCI-H23 lung = test system: NCI-H23 lung
HCT-15 colon = test system: HCT-15 colon
MDA-MB-231 breast = test system: MDA-MB-231 breast
PC-3 prostate = test system: PC-3 prostate
M14 melanoma = test system: M14 melanoma
EKVX NSCLC = test system: EKVX NSCLC
BT-549 breast = test system: BT-549 breast
HL-60(TB) leukemia = test system: HL-60(TB) leukemia
HOP-62 NSCLC = test system: HOP-62 NSCLC
SK-OV-3 ovarian = test system: SK-OV-3 ovarian
NCI/ADR-RES ovarian = test system: NCI/ADR-RES ovarian
TK-10 renal = test system: TK-10 renal
UACC-257 melanoma = test system: UACC-257 melanoma
HOP-92 NSCLC = test system: HOP-92 NSCLC
SF-295 CNS = test system: SF-295 CNS
MDA-MB-435 = test system: MDA-MB-435
SF-539 CNS = test system: SF-539 CNS
DU-145 prostate = test system: DU-145 prostate
HT29 colon = test system: HT29 colon
SW-620 colon = test system: SW-620 colon
SR leukemia = test system: SR leukemia
RXF 393 renal = test system: RXF 393 renal
A498 renal = test system: A498 renal
SK-MEL-2 melanoma = test system: SK-MEL-2 melanoma
MDA-N = test system: MDA-N
SN12C renal = test system: SN12C renal
OVCAR-8 ovarian = test system: OVCAR-8 ovarian
786-0 renal = test system: 786-0 renal
IGROV1 ovarian = test system: IGROV1 ovarian
OVCAR-5 ovarian = test system: OVCAR-5 ovarian
SK-MEL-5 melanoma = test system: SK-MEL-5 melanoma
ACHN renal = test system: ACHN renal
U251 CNS = test system: U251 CNS
K-562 leukemia = test system: K-562 leukemia
NCI-H460 lung = test system: NCI-H460 lung
SNB-19 CNS = test system: SNB-19 CNS
MOLT-4 leukemia = test system: MOLT-4 leukemia
OVCAR-3 ovarian = test system: OVCAR-3 ovarian
SNB-75 CNS = test system: SNB-75 CNS
HS 578T breast = test system: HS 578T breast
LOX IMVI melanoma = test system: LOX IMVI melanoma
NCI-H226 lung = test system: NCI-H226 lung
OVCAR-4 ovarian = test system: OVCAR-4 ovarian

## O=[N+]([O-])c1ccc2sc(C=Nc3ccc(O)cc3)cc2c1
UACC-62 melanoma
  TGI: 61.9 µM
NCI-H522 lung
  TGI: > 100 µM
COLO 205 colon
  TGI: > 100 µM
CAKI-1 renal
  TGI: 43.5 µM
RPMI-8226 leukemia
  TGI: 79.7 µM
MCF7 breast
  TGI: 47.7 µM
SK-MEL-28 melanoma
  TGI: > 100 µM
HCC-2998 colon
  TGI: 56.6 µM
UO-31 renal
  TGI: > 100 µM
A549 NSCLC
  TGI: > 100 µM
HCT-116 colon
  TGI: > 100 µM
CCRF-CEM leukemia
  TGI: 59.6 µM
SF-268 CNS
  TGI: > 100 µM
KM12 colon
  TGI: > 100 µM
MALME-3M melanoma
  TGI: > 100 µM
NCI-H23 lung
  TGI: > 100 µM
HCT-15 colon
  TGI: > 100 µM
MDA-MB-231 breast
  TGI: 44.5 µM
PC-3 prostate
  TGI: > 100 µM
M14 melanoma
  TGI: > 100 µM
EKVX NSCLC
  TGI: > 100 µM
BT-549 breast
  TGI: > 100 µM
HL-60(TB) leukemia
  TGI: 53.2 µM
HOP-62 NSCLC
  TGI: > 100 µM
SK-OV-3 ovarian
  TGI: > 100 µM
NCI/ADR-RES ovarian
  TGI: > 100 µM
TK-10 renal
  TGI: > 100 µM
UACC-257 melanoma
  TGI: 56.2 µM
HOP-92 NSCLC
  TGI: > 100 µM
SF-295 CNS
  TGI: > 100 µM
MDA-MB-435
  TGI: 34.3 µM
SF-539 CNS
  TGI: 55.4 µM
DU-145 prostate
  TGI: > 100 µM
HT29 colon
  TGI: > 100 µM
SW-620 colon
  TGI: 43.9 µM
SR leukemia
  TGI: 97 µM
RXF 393 renal
  TGI: 57.9 µM
A498 renal
  TGI: > 100 µM
SK-MEL-2 melanoma
  TGI: 59 µM
MDA-N
  TGI: 80.6 µM
SN12C renal
  TGI: > 100 µM
OVCAR-8 ovarian
  TGI: > 100 µM
786-0 renal
  TGI: 40.4 µM
IGROV1 ovarian
  TGI: > 100 µM
OVCAR-5 ovarian
  TGI: > 100 µM
SK-MEL-5 melanoma
  TGI: 68 µM
ACHN renal
  TGI: > 100 µM
U251 CNS
  TGI: 42.7 µM
K-562 leukemia
  TGI: 43 µM
NCI-H460 lung
  TGI: > 100 µM
SNB-19 CNS
  TGI: > 100 µM
MOLT-4 leukemia
  TGI: 44.6 µM
OVCAR-3 ovarian
  TGI: 28.6 µM
SNB-75 CNS
  TGI: 49.9 µM
HS 578T breast
  TGI: 66.4 µM
LOX IMVI melanoma
  TGI: 51.2 µM

## O=C1CSC(c2ccc([N+](=O)[O-])cc2)N1c1nc(-c2ccc3c(c2)CCCC3)cs1 (centres undefined)
UACC-62 melanoma
  TGI: > 100 µM
NCI-H522 lung
  TGI: > 100 µM
COLO 205 colon
  TGI: > 100 µM
CAKI-1 renal
  TGI: > 100 µM
RPMI-8226 leukemia
  TGI: > 100 µM
NCI-H226 lung
  TGI: > 100 µM
MCF7 breast
  TGI: > 100 µM
SK-MEL-28 melanoma
  TGI: > 100 µM
HCC-2998 colon
  TGI: > 100 µM
UO-31 renal
  TGI: > 100 µM
HCT-116 colon
  TGI: > 100 µM
SF-268 CNS
  TGI: > 100 µM
KM12 colon
  TGI: > 100 µM
MALME-3M melanoma
  TGI: > 100 µM
NCI-H23 lung
  TGI: > 100 µM
HCT-15 colon
  TGI: > 100 µM
MDA-MB-231 breast
  TGI: > 100 µM
PC-3 prostate
  TGI: > 100 µM
EKVX NSCLC
  TGI: > 100 µM
BT-549 breast
  TGI: > 100 µM
HL-60(TB) leukemia
  TGI: > 100 µM
HOP-62 NSCLC
  TGI: > 100 µM
NCI/ADR-RES ovarian
  TGI: > 100 µM
TK-10 renal
  TGI: > 100 µM
UACC-257 melanoma
  TGI: > 100 µM
SF-295 CNS
  TGI: > 100 µM
MDA-MB-435
  TGI: > 100 µM
SF-539 CNS
  TGI: 81.8 µM
DU-145 prostate
  TGI: > 100 µM
HT29 colon
  TGI: > 100 µM
SW-620 colon
  TGI: > 100 µM
SR leukemia
  TGI: > 100 µM
RXF 393 renal
  TGI: > 100 µM
A498 renal
  TGI: > 100 µM
SK-MEL-2 melanoma
  TGI: > 100 µM
MDA-N
  TGI: > 100 µM
SN12C renal
  TGI: > 100 µM
OVCAR-8 ovarian
  TGI: > 100 µM
786-0 renal
  TGI: > 100 µM
IGROV1 ovarian
  TGI: > 100 µM
OVCAR-5 ovarian
  TGI: > 100 µM
OVCAR-4 ovarian
  TGI: > 100 µM
SK-MEL-5 melanoma
  TGI: > 100 µM
ACHN renal
  TGI: > 100 µM
U251 CNS
  TGI: > 100 µM
K-562 leukemia
  TGI: > 100 µM
NCI-H460 lung
  TGI: > 100 µM
SNB-19 CNS
  TGI: > 100 µM
MOLT-4 leukemia
  TGI: > 100 µM
OVCAR-3 ovarian
  TGI: > 100 µM
SNB-75 CNS
  TGI: > 100 µM
HS 578T breast
  TGI: > 100 µM
LOX IMVI melanoma
  TGI: > 100 µM
